Experimental data: US7732604B2, “Triazolopyrazine derivatives” (Pfizer Inc., priority 2006, dated 2010)
Where two headings read alike, the source gives them in different places.

Biological target: T1, HGFR (Homo sapiens, UniProt P08581)
T1 construct: purchased Upstate 14-526
Experiment: HGFR continuous-coupled spectrophotometric assay (tyrosine kinase activity on Met-2 substrate peptide)
Format: biochemical
Details: HGFR 50 nM, Met-2 peptide 0.5 mM, ATP 300 μM, 37° C., absorbance 340 nm

T1 sequence (P08581 974-1390 limits assumed): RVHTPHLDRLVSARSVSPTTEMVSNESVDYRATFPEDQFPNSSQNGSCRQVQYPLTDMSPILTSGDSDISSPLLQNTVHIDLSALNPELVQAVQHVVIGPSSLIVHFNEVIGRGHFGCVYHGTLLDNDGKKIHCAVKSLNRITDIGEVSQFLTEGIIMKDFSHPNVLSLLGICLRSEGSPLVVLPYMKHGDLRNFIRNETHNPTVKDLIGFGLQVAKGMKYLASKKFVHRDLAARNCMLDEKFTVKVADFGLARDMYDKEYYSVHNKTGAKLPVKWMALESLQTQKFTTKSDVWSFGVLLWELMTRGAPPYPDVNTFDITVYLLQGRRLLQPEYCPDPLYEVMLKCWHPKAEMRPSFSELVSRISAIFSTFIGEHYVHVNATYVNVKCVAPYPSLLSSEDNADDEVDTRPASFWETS

| SMILES | Ki (read-out: Ki) [nM] | Ki (Ki) [nM] |
| --- | --- | --- |
| c1cnc2ccc(Cn3nnc4ncc(N5CCc6nc[nH]c6C5)nc43)cc2c1 [Example 100, 6-{[6-(3,4,6,7-tetra-hydro-5H-imi-dazo[4,5-c]pyri-din-5-yl)-1H-[1,2,3]tri-azolo[4,5-b]pyra-zin-1-yl]meth-yl}quinoline] | – | 37 |
| OCC1CCCN1c1cnc2nnn(Cc3ccc4ncccc4c3)c2n1 (stereo not shown) [Example 103, {1-[1-(quinolin-6-yl-methyl)-1H-[1,2,3]tri-azolo[4,5-b]pyra-zin-6-yl]pyrro-lidin-2-yl}methanol] | 39 | – |
| Cc1nccn1CC1(O)CCN(c2cnc3nnn(Cc4ccc5ncccc5c4)c3n2)C1 (stereo not shown) [Example 104, 3-[(2-methyl-1H-imi-dazol-1-yl)meth-yl]-1-[1-(quino-lin-6-yl-methyl)-1H-[1,2,3]tri-azolo[4,5-b]pyra-zin-6-yl]pyrro-lidin-3-ol] | – | 49 |
| O[C@@H]1C[C@H]2CN(c3cnc4nnn(Cc5ccc6ncccc6c5)c4n3)CCN2C1 [Example 105, (7R,8aS)-2-[1-(quino-lin-6-yl-methyl)-1H-[1,2,3]tri-azolo[4,5-b]pyra-zin-6-yl]octa-hydropyrro-lo[12-a]pyra-zin-7-ol] | 29 | – |
| C[C@H]1CN(c2cnc3nnn(Cc4ccc5ncccc5c4)c3n2)C[C@]1(C)CO [Example 107, {(3R,4R)-3,4-di-methyl-1-[1-(quino-lin-6-yl-methyl)-1H-[1,2,3]tri-azolo[4,5-b]pyra-zin-6-yl]pyrro-lidin-3-yl}meth-anol] | 47 | – |
| CCC(CO)Nc1cnc2nnn(Cc3ccc4ncccc4c3)c2n1 (stereo not shown) [Example 112, 2-{[1-(quinolin-6-yl-methyl)-1H-[1,2,3]tri-azolo[4,5-b]pyra-zin-6-yl]ami-no}butan-1-ol] | 29 | – |
| C[C@@H](O)CNc1cnc2nnn(Cc3ccc4ncccc4c3)c2n1 [Example 114, (2R)-1-{[1-(quino-lin-6-yl-methyl)-1H-[1,2,3]tri-azolo[4,5-b]pyra-zin-6-yl]ami-no}propan-2-ol] | 40 | – |
| C[C@@H](CO)Nc1cnc2nnn(Cc3ccc4ncccc4c3)c2n1 [Example 118, (2S)-2-{[1-(quino-lin-6-yl-methyl)-1H-[1,2,3]tri-azolo[4,5-b]pyra-zin-6-yl]ami-no}propan-1-ol] | 41 | – |
| OC[C@@H]1CC=CC[C@@H]1Nc1cnc2nnn(Cc3ccc4ncccc4c3)c2n1 [Example 119, [(1S,6R)-6-{[1-(quino-lin-6-yl-methyl)-1H-[1,2,3]tri-azolo[4,5-b]pyra-zin-6-yl]ami-no}cyclohex-3-en-1-yl]meth-anol] | 30 | – |
| c1cnc2ccc(Cn3nnc4ncc(NCc5cc(C6CC6)[nH]n5)nc43)cc2c1 [Example 124, N-[(5-cyclo-propyl-1H-pyra-zol-3-yl)meth-yl]-1-(quino-lin-6-yl-methyl)-1H-[1,2,3]tri-azolo[4,5-b]pyra-zin-6-amine] | 35 | – |
| OC[C@@H]1C[C@H]1CNc1cnc2nnn(Cc3ccc4ncccc4c3)c2n1 [Example 127, [(1R,2R)-2-({[1-(quino-lin-6-yl-methyl)-1H-[1,2,3]tri-azolo[4,5-b]pyra-zin-6-yl]ami-no}methyl)cyclo-propyl]methanol] | 40 | – |
| Cc1c(CNc2cnc3nnn(Cc4ccc5ncccc5c4)c3n2)cnn1C [Example 128, N-[(15-di-methyl-1H-pyra-zol-4-yl)meth-yl]-1-(quino-lin-6-yl-methyl)-1H-[1,2,3]tri-azolo[4,5-b]pyra-zin-6-amine] | 28 | – |
| O[C@@H]1COC[C@H]1Nc1cnc2nnn(Cc3ccc4ncccc4c3)c2n1 [Example 131, (3S4R)-4-{[1-(quino-lin-6-yl-methyl)-1H-[123]tri-azolo[45-b]pyra-zin-6-yl]ami-no}tetrahydro-furan-3-ol] | 54 | – |
| CC(C)(C)OC(=O)NC[C@H]1CCN(c2cnc3nnn(Cc4ccc5ncccc5c4)c3n2)C1 [Example 133, tert-butyl ({(3R)-1-[1-(quino-lin-6-yl-methyl)-1H-[1,2,3]tri-azolo[4,5-b]pyra-zin-6-yl]pyrro-lidin-3-yl}meth-yl)carbamate] | 51 | – |
| CNC1CCN(c2cnc3nnn(Cc4ccc5ncccc5c4)c3n2)CC1 [Example 135, N-methyl-1-[1-(quino-lin-6-yl-methyl)-1H-[1,2,3]tri-azolo[4,5-b]pyra-zin-6-yl]pipe-ridin-4-amine] | 35 | – |
| NC[C@H]1CCN(c2cnc3nnn(Cc4ccc5ncccc5c4)c3n2)C1 [Example 136, 1-[(3R)-1-[1-(quino-lin-6-yl-methyl)-1H-[1,2,3]tri-azolo[4,5-b]pyra-zin-6-yl]pyrro-lidin-3-yl}methanamine] | 30 | – |

Continued by falling Ki (read-out: Ki), values first:

| Ki (read-out: Ki) [nM] | SMILES | Ki (Ki) [nM] |
| --- | --- | --- |
| 27 | CC(=O)NCCNc1cnc2nnn(Cc3ccc4ncccc4c3)c2n1 [Example 111, N-(2-{[1-(quino-lin-6-yl-methyl)-1H-[1,2,3]tri-azolo[4,5-b]pyra-zin-6-yl]ami-no}ethyl)aceta-mide] | – |
| 27 | NCCNc1cnc2nnn(Cc3ccc4ncccc4c3)c2n1 [Example 137, N-[1-(quinolin-6-yl-methyl)-1H-[1,2,3]tri-azolo[4,5-b]pyra-zin-6-yl]eth-ane-1,2-diamine] | – |
| 26 | FC(F)c1nnc2n1CCN(c1cnc3nnn(Cc4ccc5ncccc5c4)c3n1)C2 [Example 108, 6-({6-[3-(di-fluoromethyl)-5,6-di-hydro[1,2,4]tri-azolo[4,3-a]pyrazin-7(8H)-yl]-1H-[1,2,3]tri-azolo[4,5-b]pyra-zin-1-yl}meth-yl)quinoline] | – |
| 25 | c1cnc2ccc(Cn3nnc4ncc(NCc5cnn6cccnc56)nc43)cc2c1 [Example 122, N-(pyrazolo[15-a]pyrimi-din-3-yl-methyl)-1-(quino-lin-6-yl-methyl)-1H-[1,2,3]tri-azolo[4,5-b]pyra-zin-6-amine] | – |
| 24 | CCc1noc(C2CCN(c3cnc4nnn(Cc5ccc6ncccc6c5)c4n3)CC2)n1 [Example 102, 6-({6-[4-(3-eth-yl-124-oxa-diazol-5-yl)pipe-ridin-1-yl]-1H-[1,2,3]tri-azolo[4,5-b]pyra-zin-1-yl}meth-yl)quinoline] | – |
| 23 | CC1(O)CCN(c2cnc3nnn(Cc4ccc5ncccc5c4)c3n2)CC1 [Example 101, 4-methyl-1-[1-(quino-lin-6-yl-methyl)-1H-[1,2,3]tri-azolo[4,5-b]pyra-zin-6-yl]piperidin-4-ol] | – |
| 23 | OCC[C@H]1CN(c2cnc3nnn(Cc4ccc5ncccc5c4)c3n2)C[C@H]1CO [Example 110, 2-{(3R,4S)-4-(hydroxy-methyl)-1-[1-(quino-lin-6-yl-methyl)-1H-[1,2,3]tri-azolo[4,5-b]pyra-zin-6-yl]pyrro-lidin-3-yl}eth-anol] | – |
| 22 | CN(C)C(C(N)=O)C1CCN(c2cnc3nnn(Cc4ccc5ncccc5c4)c3n2)CC1 (stereo not shown) [Example 109, 2-(dimethyl-amino)-2-{1-[1-(quino-lin-6-yl-methyl)-1H-[1,2,3]tri-azolo[4,5-b]pyra-zin-6-yl]pipe-ridin-4-yl}acetamide] | – |
| 22 | CN(C)C(=O)CCNc1cnc2nnn(Cc3ccc4ncccc4c3)c2n1 [Example 121, N,N-dimethyl-N~3~-[1-(quino-lin-6-yl-methyl)-1H-[1,2,3]tri-azolo[4,5-b]pyra-zin-6-yl]-beta-alaninamide] | – |
| 16 | CC(=O)N1CC[C@@H](Nc2cnc3nnn(Cc4ccc5ncccc5c4)c3n2)C1 [Example 126, N-[(3R)-1-acetyl-pyrrolidin-3-yl]-1-(quino-lin-6-yl-methyl)-1H-[1,2,3]tri-azolo[4,5-b]pyra-zin-6-amine] | – |
| 15 | CNC(=O)CCNc1cnc2nnn(Cc3ccc4ncccc4c3)c2n1 [Example 125] | – |
| 13 | OC[C@H]1C[C@@H]1CNc1cnc2nnn(Cc3ccc4ncccc4c3)c2n1 [Example 129, [(1S,2S)-2-({[1-(quino-lin-6-yl-methyl)-1H-[1,2,3]tri-azolo[4,5-b]pyrazin-6-yl]ami-no}methyl)cyclo-propyl]methanol] | – |
| 12 | O=c1[nH]cccc1CNc1cnc2nnn(Cc3ccc4ncccc4c3)c2n1 [Example 115, 3-({[1-(quinolin-6-yl-methyl)-1H-[1,2,3]tri-azolo[4,5-b]pyra-zin-6-yl]ami-no}meth-yl)pyridin-2(1H)-one] | – |
| 11 | C[C@H](O)CNc1cnc2nnn(Cc3ccc4ncccc4c3)c2n1 [Example 117, (2S)-1-{[1-(quino-lin-6-yl-methyl)-1H-[1,2,3]tri-azolo[4,5-b]pyra-zin-6-yl]ami-no}propan-2-ol] | – |
| 10 | CC[C@H](CO)Nc1cnc2nnn(Cc3ccc4ncccc4c3)c2n1 [Example 116, (2R)-2-{[1-(quino-lin-6-yl-methyl)-1H-[1,2,3]tri-azolo[4,5-b]pyra-zin-6-yl]ami-no}butan-1-ol] | – |
| 9 | OCCC1(CO)CCN(c2cnc3nnn(Cc4ccc5ncccc5c4)c3n2)C1 (stereo not shown) [Example 106, 2-{3-(hydroxy-methyl)-1-[1-(quino-lin-6-ylmethyl)-1H-[1,2,3]tri-azolo[4,5-b]pyra-zin-6-yl]pyr-rolidin-3-yl}ethanol] | – |
| 8 | CC(O)CNc1cnc2nnn(Cc3ccc4ncccc4c3)c2n1 (stereo not shown) [Example 113, 1-{[1-(quinolin-6-yl-methyl)-1H-[1,2,3]tri-azolo[4,5-b]pyra-zin-6-yl]ami-no}propan-2-ol] | – |
| 8 | c1cnc2ccc(Cn3nnc4ncc(NC5CCOC5)nc43)cc2c1 (stereo not shown) [Example 123, 1-(quinolin-6-yl-methyl)-N-(tetra-hydrofuran-3-yl)-1H-[1,2,3]tri-azolo[4,5-b]pyra-zin-6-amine] | – |
| 8 | CCOCC(O)CNc1cnc2nnn(Cc3ccc4ncccc4c3)c2n1 (stereo not shown) [Example 132, 1-ethoxy-3-{[1-(quino-lin-6-yl-methyl)-1H-[123]tri-azolo[45-b]pyra-zin-6-yl]ami-no}propan-2-ol] | – |
| 7 | CC1(CNc2cnc3nnn(Cc4ccc5ncccc5c4)c3n2)COC1 [Example 130, N-[(3-methyl-oxetan-3-yl)meth-yl]-1-(quino-lin-6-yl-methyl)-1H-[1,2,3]tri-azolo[4,5-b]pyra-zin-6-amine] | – |
| 7 | CN[C@@H]1CCN(c2cnc3nnn(Cc4ccc5ncccc5c4)c3n2)C1 [Example 134, (3R)-N-methyl-1-[1-(quino-lin-6-yl-methyl)-1H-[1,2,3]tri-azolo[4,5-b]pyra-zin-6-yl]pyrro-lidin-3-amine] | – |
